Test results reported in patent US20260355196A1, “INHIBITORS AND DEGRADERS OF PIP4K PROTEIN” (Larkspur Biosciences, Inc., priority 2023, published 2026).
Blank lines part the entries; values can stand above or below the compound they belong to.

Biological target: T1, PIP4K2C (Homo sapiens, UniProt Q8TBX8)
T1 sequence (Q8TBX8 1-421): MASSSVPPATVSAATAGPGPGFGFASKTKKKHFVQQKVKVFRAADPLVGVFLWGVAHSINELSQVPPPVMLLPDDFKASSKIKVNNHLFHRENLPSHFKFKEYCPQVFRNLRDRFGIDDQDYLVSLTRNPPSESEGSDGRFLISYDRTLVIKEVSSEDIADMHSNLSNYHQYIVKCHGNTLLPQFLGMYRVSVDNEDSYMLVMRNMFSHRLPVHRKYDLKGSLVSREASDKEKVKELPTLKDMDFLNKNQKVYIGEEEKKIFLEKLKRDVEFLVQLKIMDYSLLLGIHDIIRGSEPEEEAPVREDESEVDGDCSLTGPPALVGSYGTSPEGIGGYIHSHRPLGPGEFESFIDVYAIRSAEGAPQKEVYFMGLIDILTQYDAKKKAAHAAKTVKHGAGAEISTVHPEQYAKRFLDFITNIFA
Experiment: Enzyme Binding Assay (KINOMEscan): active site-directed competition binding to an immobilized ligand
Design: purchased Eurofins DiscoverX, San Diego, CA 87-0007-1094
Settings: 11-point dose response, duplicate, top concentration 5 micromolar; read-out: Pip4k2c Kd: IC50
How it was run: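 Active site-directed competition binding against an immobilized ligand. 11-point dose-response in duplicate, top concentration 5 micromolar; IC50 from a Hill equation fitted by the Levenberg-Marquardt algorithm.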

Compound: CNC(=O)[C@H]1CC[C@@H](Nc2ncc(Cl)c(-c3cnn(-c4ccc(=O)[nH]c4)c3)n2)CC1 [Compound 163, cis-(1s,4s)-4-((5-chloro-4-(1-(6-oxo-1,6-dihydropyridin-3-yl)-1H-pyrazol-4-yl)pyrimidin-2-yl)amino)-N-methylcyclohexane-1-carboxamide]
IC50: 500 to 1000 nM

Compound: CNC(=O)[C@H]1CC[C@H](Nc2ncc(Cl)c(-c3cnn(-c4cc[nH]c(=O)c4)c3)n2)CC1 [Compound 165, trans-(1r,4r)-4-((5-chloro-4-(1-(2-oxo-1,2-dihydropyridin-4-yl)-1H-pyrazol-4-yl)pyrimidin-2-yl)amino)-N-methylcyclohexane-1-carboxamide]
IC50: 500 to 1000 nM

Compound: CNC(=O)[C@H]1CC[C@@H](Nc2ncc(Cl)c(-c3cnn(-c4cccc(=O)[nH]4)c3)n2)CC1 [Compound 167, cis-(1s,4s)-4-((5-chloro-4-(1-(6-oxo-1,6-dihydropyridin-2-yl)-1H-pyrazol-4-yl)pyrimidin-2-yl)amino)-N-methylcyclohexane-1-carboxamide]
IC50: 500 to 1000 nM

Compound: CC(=O)N[C@H]1CC[C@H](Nc2ncc(F)c(N3CCOCC3)n2)CC1 [Compound 182, trans-N-(4-((5-fluoro-4-morpholinopyrimidin-2-yl)amino)cyclohexyl)acetamide]
IC50: 1000 to 5000 nM

Compound: CC(=O)N1CCC(Nc2ncc(F)c(-c3cccc(-c4cc[nH]c(=O)c4)c3)n2)CC1 [Compound 187, 4-(3-(2-((1-acetylpiperidin-4-yl)amino)-5-fluoropyrimidin-4-yl)phenyl)pyridin-2(1H)-one]
IC50: < 500 nM

Compound: CC(=O)N[C@H]1CC[C@H](Nc2ncc(F)c(-c3cccc(-c4cc[nH]c(=O)c4)c3)n2)CC1 [Compound 188, trans-N-(4-((5-fluoro-4-(3-(2-oxo-1,2-dihydropyridin-4-yl)phenyl)pyrimidin-2-yl)amino)cyclohexyl)acetamide]
IC50: < 500 nM

Compound: CC(=O)N1CCC(Nc2ncc(F)c(N3CCCC(n4ccccc4=O)C3)n2)CC1 (stereo not shown) [Compound 189, 1-(1-(2-((1-acetylpiperidin-4-yl)amino)-5-fluoropyrimidin-4-yl)piperidin-3-yl)pyridin-2(1H)-one]
IC50: 1000 to 5000 nM

Compound: CC(=O)N[C@H]1CC[C@H](Nc2ncc(Cl)c(-c3cc(C4CC4)[nH]n3)n2)CC1 [Compound 190, trans-N-((1r,4r)-4-((5-chloro-4-(5-cyclopropyl-1H-pyrazol-3-yl)pyrimidin-2-yl)amino)cyclohexyl)acetamide]
IC50: < 500 nM

Compound: CNC(=O)[C@H]1CC[C@@H](Nc2ncc(Cl)c(-c3cc(C4CC4)[nH]n3)n2)CC1 [Compound 191, cis-(1s,4s)-4-((5-chloro-4-(5-cyclopropyl-1H-pyrazol-3-yl)pyrimidin-2-yl)amino)-N-methylcyclohexane-1-carboxamide]
IC50: < 500 nM

Compound: CC(=O)N1CCC[C@H](Nc2ncc(Cl)c(-c3cc(C4CC4)[nH]n3)n2)C1 [Compound 192, (S)-1-(3-((5-chloro-4-(5-cyclopropyl-1H-pyrazol-3-yl)pyrimidin-2-yl)amino)piperidin-1-yl)ethan-1-one]
IC50: < 500 nM

Compound: CNC(=O)[C@H]1C[C@@H](Nc2ncc(Cl)c(-c3cnn(-c4ccc[nH]c4=O)c3)n2)C1 [Compound 193, cis-3-((5-chloro-4-(1-(2-oxo-1,2-dihydropyridin-3-yl)-1H-pyrazol-4-yl)pyrimidin-2-yl)amino)-N-methylcyclobutane-1-carboxamide]
IC50: < 500 nM

Compound: CC(=O)N1CCC[C@H](Nc2ncc(Cl)c(-c3cccc(-c4ccc(F)cc4)n3)n2)C1 [Compound 194, (S)-1-(3-((5-chloro-4-(6-(4-fluorophenyl)pyridin-2-yl)pyrimidin-2-yl)amino)piperidin-1-yl)ethan-1-one]
IC50: 1000 to 5000 nM

Compound: NC(=O)[C@H]1CC[C@H](Nc2ncc(F)c(-c3cccc(-c4cc[nH]c(=O)c4)c3)n2)CC1 [Compound 195, trans-4-((5-fluoro-4-(3-(2-oxo-1,2-dihydropyridin-4-yl)phenyl)pyrimidin-2-yl)amino)cyclohexane-1-carboxamide]
IC50: < 500 nM

Further lines, results first:

IC50: < 500 nM
Compound: CNC(=O)[C@H]1C[C@H](Nc2ncc(Cl)c(-c3cc(C4CC4)[nH]n3)n2)C1 [Compound 162, trans-(1r,3r)-3-((5-chloro-4-(5-cyclopropyl-1H-pyrazol-3-yl)pyrimidin-2-yl)amino)-N-methylcyclobutane-1-carboxamide]

IC50: < 500 nM
Compound: CNC(=O)[C@H]1C[C@@H](Nc2ncc(Cl)c(-c3cnn(-c4ccc(=O)[nH]c4)c3)n2)C1 [Compound 164, cis-3-((5-chloro-4-(1-(6-oxo-1,6-dihydropyridin-3-yl)-1H-pyrazol-4-yl)pyrimidin-2-yl)amino)-N-methylcyclobutane-1-carboxamide]

IC50: < 500 nM
Compound: CNC(=O)[C@H]1C[C@H](Nc2ncc(Cl)c(-c3cnn(-c4ccc[nH]c4=O)c3)n2)C1 [Compound 166, trans-(1r,3r)-3-((5-chloro-4-(1-(2-oxo-1,2-dihydropyridin-3-yl)-1H-pyrazol-4-yl)pyrimidin-2-yl)amino)-N-methylcyclobutane-1-carboxamide]

IC50: < 500 nM
Compound: CC(=O)N1CCC(Nc2ncc(F)c(-c3cccc(C4COC4)c3)n2)CC1 [Compound 169, 1-(4-((5-fluoro-4-(3-(oxetan-3-yl)phenyl)pyrimidin-2-yl)amino)piperidin-1-yl)ethan-1-one]

IC50: < 500 nM
Compound: CC(=O)N1CCC(Nc2ncc(F)c(-c3cccc(C4(O)COC4)c3)n2)CC1 [Compound 171, 1-(4-((5-fluoro-4-(3-(3-hydroxyoxetan-3-yl)phenyl)pyrimidin-2-yl)amino)piperidin-1-yl)ethan-1-one]

IC50: < 500 nM
Compound: CC(=O)N1CCC(Nc2ncc(F)c(-c3ccnc(C(C)(C)O)c3)n2)CC1 [Compound 172, 1-(4-((5-fluoro-4-(2-(2-hydroxypropan-2-yl)pyridin-4-yl)pyrimidin-2-yl)amino)piperidin-1-yl)ethan-1-one]

IC50: < 500 nM
Compound: CC(=O)N[C@H]1CC[C@H](Nc2ncc(F)c(-c3cccc(C4CCCN(C(C)=O)C4)c3)n2)CC1 (stereo partly drawn) [Compound 174, trans-N-(4-((4-(3-(1-acetylpiperidin-3-yl)phenyl)-5-fluoropyrimidin-2-yl)amino)cyclohexyl)acetamide]

IC50: < 500 nM
Compound: CC(=O)N[C@H]1CC[C@H](Nc2ncc(F)c(-c3cccc(C4COC4)c3)n2)CC1 [Compound 175, N-(trans-4-((5-fluoro-4-(3-(oxetan-3-yl)phenyl)pyrimidin-2-yl)amino)cyclohexyl)acetamide]

IC50: < 500 nM
Compound: CC(=O)N[C@H]1CC[C@H](Nc2ncc(F)c(-c3cccc(C4(O)COC4)c3)n2)CC1 [Compound 176, N-(trans-4-((5-fluoro-4-(3-(3-hydroxyoxetan-3-yl)phenyl)pyrimidin-2-yl)amino)cyclohexyl)acetamide]

IC50: < 500 nM
Compound: CC(=O)N1CCC(Nc2ncc(F)c(-c3cccc(C4CCCN(C(C)=O)C4)c3)n2)CC1 (stereo not shown) [Compound 179, 1-(4-((4-(3-(1-acetylpiperidin-3-yl)phenyl)-5-fluoropyrimidin-2-yl)amino)piperidin-1-yl)ethan-1-one]

IC50: < 500 nM
Compound: NC(=O)[C@H]1CC[C@H](Nc2ncc(F)c(-c3cccc(C4COC4)c3)n2)CC1 [Compound 180, trans-4-((5-fluoro-4-(3-(oxetan-3-yl)phenyl)pyrimidin-2-yl)amino)cyclohexane-1-carboxamide]

IC50: < 500 nM
Compound: NC(=O)[C@H]1CC[C@H](Nc2ncc(F)c(-c3cccc(C4(O)COC4)c3)n2)CC1 [Compound 181, trans-4-((5-fluoro-4-(3-(3-hydroxyoxetan-3-yl)phenyl)pyrimidin-2-yl)amino)cyclohexane-1-carboxamide]
